Measurements published in patent EP1614683B1, “Indazole compounds and pharmaceutical compositions for inhibiting protein kinases, and methods for their use” (priority 1999, dated 2001).
Read-outs that look alike come from different tables or passages of the source.

Assays:
CDK4/Cyclin D3 complex = CDK4/Cyclin D3 complex (Homo sapiens, UniProt P11802); test: biochemical; settings: read-out: CDK4 * (% inhibition)
human FAK (FAKcd409) = target: T1, human FAK (FAKcd409) (Homo sapiens, UniProt Q05397, P410T); test: FAK fluorescence polarization assay; type: biochemical; settings: Table 5; 1 µM; read-out: % Inhibition @ 1 µM FAK
T1 construct: comprises residues methionine 409 to glutamate 689; made in house; host or cells: baculovirus vector expression system (insect cells)
Outline: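 Baculovirus-expressed FAK catalytic domain (FAKcd409, 5 nM) phosphorylating 1 mg/ml poly Glu-Tyr (4:1) with 1 mM ATP in 100 mM Hepes pH 7.5, 10 mM MgCl2, 1 mM DTT. Stopped with EDTA; fluorescent peptide and anti-phosphotyrosine antibody added, product detected by fluorescence polarization.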

[1] = test system: human umbilical vein endothelial cells (HUVEC); test: HUVEC proliferation assay (VEGF-stimulated, MTT); type: cell-based; settings: Homo sapiens, HUVEC, Table 1
[2] = target: T2, phosphorylated Tie-2 (aa 775-1122) (Homo sapiens, UniProt Q02763); test: TIE-2 spectrophotometric assay; type: biochemical; settings: Table 5; 1 µM; bold values spectrophotometric assay, non-bolded DELFIA assay (bold not visible here); read-out: % Inhibition @ 1 µM Tie2-P
T2 construct: 4 to 12 nM phosphorylated Tie-2 (aa 775-1122); made in house; host or cells: insect cells
Outline: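 Human phosphorylated Tie-2 kinase activity was measured spectrophotometrically by coupling ADP formation, from phosphoryl transfer to poly(Glu4 Tyr), to NADH oxidation via pyruvate kinase and lactate dehydrogenase. Absorbance loss at 340 nm was read on a Beckman DU650. Reactions held 1 mM phosphoenolpyruvate, 0.24 mM NADH, 40 mM MgCl2, 5 mM DTT, 0.5 mM ATP, and 15 units/mL each of PK and LDH in 100 mM HEPES, pH 7.5.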

human CHK1 (FL-CHK1) = target: T3, human CHK1 (FL-CHK1) (Homo sapiens, UniProt O14757); test: CHK1 coupled spectrophotometric assay; type: biochemical; settings: read-out: CHK -1* (% inhibition)
T3 construct: C-terminally His-tagged full-length human CHK1 (FL-CHK1) was expressed using the baculovirus/insect cell system; made in house; host or cells: baculovirus/insect cell system
T3 sequence (O14757 1-476): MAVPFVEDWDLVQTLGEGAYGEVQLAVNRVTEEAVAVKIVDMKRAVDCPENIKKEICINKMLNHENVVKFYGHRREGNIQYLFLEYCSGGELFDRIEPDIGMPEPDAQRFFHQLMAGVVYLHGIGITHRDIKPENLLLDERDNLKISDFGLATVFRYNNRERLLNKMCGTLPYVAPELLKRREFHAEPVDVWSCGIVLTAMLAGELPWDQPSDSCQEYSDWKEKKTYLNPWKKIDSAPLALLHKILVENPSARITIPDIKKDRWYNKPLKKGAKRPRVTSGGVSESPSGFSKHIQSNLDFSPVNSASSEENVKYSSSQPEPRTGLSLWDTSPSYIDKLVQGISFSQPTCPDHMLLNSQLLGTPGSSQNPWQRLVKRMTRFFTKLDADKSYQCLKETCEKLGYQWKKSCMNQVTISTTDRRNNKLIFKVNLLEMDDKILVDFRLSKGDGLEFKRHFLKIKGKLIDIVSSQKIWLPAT
Outline: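 His-tagged full-length human CHK1 from baculovirus/insect cells, 10 nM, phosphorylating Syntide-2. ADP formation coupled via PK/LDH with PEP to NADH oxidation, followed as absorbance decrease at 340 nm. Ki from initial rates at varying compound concentrations.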

[3] = + albumin, read-out: HUVEC + albumin IC50

T2 sequence (Q02763 775-1122): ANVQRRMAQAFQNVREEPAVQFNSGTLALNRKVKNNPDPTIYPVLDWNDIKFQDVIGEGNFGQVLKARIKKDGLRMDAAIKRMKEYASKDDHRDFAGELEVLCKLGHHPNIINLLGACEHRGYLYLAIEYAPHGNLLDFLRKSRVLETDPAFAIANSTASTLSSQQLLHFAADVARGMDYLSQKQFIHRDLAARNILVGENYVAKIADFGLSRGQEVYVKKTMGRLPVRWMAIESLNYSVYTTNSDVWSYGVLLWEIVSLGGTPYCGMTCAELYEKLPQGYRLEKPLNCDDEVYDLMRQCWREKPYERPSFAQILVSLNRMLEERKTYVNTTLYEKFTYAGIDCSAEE
T1 sequence (Q05397 409-689 P410T): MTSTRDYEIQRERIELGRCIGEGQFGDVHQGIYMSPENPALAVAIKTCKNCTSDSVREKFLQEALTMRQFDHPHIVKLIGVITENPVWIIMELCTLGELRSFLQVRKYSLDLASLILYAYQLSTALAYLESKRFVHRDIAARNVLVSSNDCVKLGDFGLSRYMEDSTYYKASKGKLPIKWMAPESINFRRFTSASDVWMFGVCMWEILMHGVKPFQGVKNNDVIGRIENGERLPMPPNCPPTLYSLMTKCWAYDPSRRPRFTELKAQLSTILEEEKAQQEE
Sequence of CDK4/Cyclin D3 complex (P11802 whole entry): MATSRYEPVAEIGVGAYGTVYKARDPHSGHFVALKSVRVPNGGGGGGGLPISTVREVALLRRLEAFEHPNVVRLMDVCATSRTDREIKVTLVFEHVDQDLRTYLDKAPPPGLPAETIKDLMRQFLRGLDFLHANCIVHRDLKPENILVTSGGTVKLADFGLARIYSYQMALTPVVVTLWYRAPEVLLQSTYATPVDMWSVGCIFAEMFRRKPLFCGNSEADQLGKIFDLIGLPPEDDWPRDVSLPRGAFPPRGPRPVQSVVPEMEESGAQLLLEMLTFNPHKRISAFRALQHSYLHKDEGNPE
Sequence of CDK4/Cyclin D3 complex (P30281 whole entry partner): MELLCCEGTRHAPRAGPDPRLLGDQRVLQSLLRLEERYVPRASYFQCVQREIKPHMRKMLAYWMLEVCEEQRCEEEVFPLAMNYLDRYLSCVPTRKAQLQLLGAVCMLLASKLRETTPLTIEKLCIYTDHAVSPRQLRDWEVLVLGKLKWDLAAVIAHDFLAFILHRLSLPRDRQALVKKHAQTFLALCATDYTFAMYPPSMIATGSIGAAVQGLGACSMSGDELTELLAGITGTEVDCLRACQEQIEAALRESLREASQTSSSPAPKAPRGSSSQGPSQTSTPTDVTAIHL

SMILES	inhibition at 1 µM (CDK4/Cyclin D3 complex)	inhibition at 1 µM (human FAK (FAKcd409))	IC50 [1, 3]	IC50 ([1]; read-out: HUVEC IC50)	inhibition at 1 µM [2]	inhibition at 1 µM (human CHK1 (FL-CHK1))
CCn1nc(C)cc1C(=O)Nc1cccc(Oc2ccc3c(/C=C/c4ccccn4)n[nH]c3c2)c1 [Reference Example 31(d), 6-[3-((1-Ethyl-3-methyl-1H-pyrazol-5-yl)carboxamido)phenoxy]-3-E-[2-(pridin-2-yl)ethenyl]-1H-indazole]	9%	6%	~13 nM	1.3 nM	46%	0%
C#CCNC(=O)c1ccccc1Sc1ccc2c(/C=C/c3ccccn3)n[nH]c2c1 [Reference Example 35(cc), 6-[2-(2-Propynylcarbamoyl)phenylsulfany]-3-E-[2-(pyridin-2-yl)ethenyl]-1H-indazole]	6%	7%	1.6 nM	0.05 nM	47%	0%
CCONC(=O)c1ccccc1Sc1ccc2c(/C=C/c3ccccn3)n[nH]c2c1 [Reference Example 35(dd), 6-[2-(ethoxycarbamoyl)phenylsufanyl]-3-E-[2-(pyridin-2-yl)ethenyl]-1H-indazole]	8%	4%	2.9 nM	0.18 nM	48%	0%
CC(C)ONC(=O)c1ccccc1Sc1ccc2c(/C=C/c3ccccn3)n[nH]c2c1 [Reference Example 35(k)]	7%	7%	2.2 nM		55%	0%
O=C(NNc1ccccn1)c1ccccc1Sc1ccc2c(/C=C/c3ccccn3)n[nH]c2c1 [Reference Example 35(n), 6-[2-(N^2-(pyrid-2-ylhydrazino)carbonyl)phenylsulfanyl]-3-E-[2-(pyridin-2-yl)ethenyl]-1H-indazole]	10%	1%	11 nM	0.11 nM	82%	23%
CCn1nc(C)cc1C(=O)Nc1cccc(C(=O)c2ccc3c(/C=C/c4ccccn4)n[nH]c3c2)c1 [Reference Example 41(a), 6-[3-((1-Ethyl-3-methyl-1H-pyrazol-5-yl)carboxamido)benzoyl]. 3-E-[2-(pyridin-2-yl)ethenyl]-1H-indazole]	6%	5%	4.4 nM	0.48 nM	50%	0%
CCn1nc(C)cc1C(=O)Nc1cc(C(=O)c2ccc3c(/C=C/c4ccccn4)n[nH]c3c2)ccc1C [Reference Example 41(ee), 6-[3-((1-Ethyl-3-methyl-1H-pyrazol-5-yl)carboxamido)-4-methylbenzoyl]-3-E-[2-(pyridin-2-yl)ethenyl]-1H-indazole]	2%	7%	4.3 nM	0.24 nM	41%	0%
CCCn1nc(C)cc1C(=O)Nc1cccc(C(=O)c2ccc3c(/C=C/c4ccccn4)n[nH]c3c2)c1 [Reference Example 41(r)]	5%	5%	11 nM		56%	0%
